Test results as given in patent EP0560267B1, “Isosteric antiherpes peptide derivatives” (BOEHRINGER INGELHEIM (CANADA) LTD., priority 1992, dated 1993).
Where two headings read alike, the source gives them in different places.

How the values were obtained:
[1] = tested on: HSV-2; assay: Inhibition of Herpes Simplex Virus (HSV-2) replication in cell culture; format: cell-based
Description: Inhibition of Herpes Simplex Virus (HSV-2) Replication in Cell Culture
BHK-21/C13 cells (ATCC CCL 10) are incubated for two days in 150 cm^2 T-flasks (1.5 x 10^6 cells/flask) with alpha-MEM medium (Gibco Canada Inc., Burlington, Ontario, Canada) supplemented with 8% (v/v) fetal bovine serum (FBS, Gibco Canada Inc.). The cells are trypsinized and then transferred to fresh media in a 24 well plate to give 2.5 x 10^5 cells in 750 µL of media per well. The cells are incubated at 37° for a period of 6 h to allow them to adhere to the plate. Thereafter, the cells are washed once with 500 µL of alpha-MEM supplemented with 0.5% (v/v) FBS and then incubated with 750 µL of the same media (low serum) for 3 days. After this period of serum starvation, the low serum medium is removed and the cells are incubated in 500 µL of BBMT for 2 to 3 hours. {BBMT medium is described by P. Brazeau et al., Proc. Natl. Acad. Sci. USA, 79, 7909 (1982).} Thereafter, the cells are infected with HSV-2 (multiplicity of infection = 0.02 PFU/cell) in 100 µL of BBMT medium. (Note: The HSV-2 used was strain HG-52, see Y. Langelier and G. Buttin, J. Gen. Virol., 57, 21 (1981); the virus was stored at -80°.) Following 1 h of virus adsorption at 37°, the media is removed and the cells are washed with BBMT (3 X 250 µL). The cells in each well are incubated with or without (control) appropriate concentrations of the test agent dissolved in 200 µL of BBMT medium. After 29 h of incubation at 37°, the infected cells are harvested by first freezing the plate at -80°, followed by thawing. The cells in each well are scraped off the surface of the well with the help of the melting ice fragments. After complete thawing, the cell suspensions are collected and each well is rinsed with 150 µL of BBMT medium. The viral sample (suspension plus washing) is sonicated gently for 4 min at 4°. Cell debris are removed by centrifugation (1000 times gravity for 10 minutes at 4°). The supernatant is collected and stored at -80° until determination of viral titer.
Viral titration was performed by a modification of the colorimetric assay method of M. Langlois et al., Journal of Biological Standardization, 14, 201 (1986).
More specifically, in a similar manner as described above, BHK-21/C13 cells are trypsinized and transferred to fresh media in a 96 well microtiter plate to give 20,000 cells in 100 µL of media per well. The cells in the prepared plate are incubated at 37° for 2 h. During that time, the viral sample is thawed and sonicated gently for 15 seconds, and log dilutions of the sample are prepared (1/5 sequential: 50 µL of the sample plus 200 µL of BBMT medium, sequential dilutions being done with a multichannel pipette.
On completion of the above 2 hour incubation of the BHK-21/C13 cells, the media is replaced with alpha-MEM medium supplemented with 3% (v/v) FBS. The cells are now ready to be infected with the various sample dilutions of virus. Aliquots (50 µL) of the various dilutions are transferred into the appropriate wells of the plate. The resulting infected cells are incubated for 2 days at 37°. Then 50 µL of a 0.15% (v/v) solution of neutral red dye in Hank's Balanced Salt Solution (pH 7.3, Gibco Canada Inc.) is added to each well. The prepared plate is incubated for 45 min at 37°. Medium from each well is then aspirated and the cells are washed once with 200 µL of Hank's Balanced Salt Solution. […]

[2] = target: T1, HSV-1 ribonucleotide reductase (Human herpesvirus 1, UniProt P08543); assay: Inhibition of Herpes Simplex Virus (HSV-1) ribonucleotide reductase; format: biochemical
T1 construct: HSV-1 ribonucleotide reductase (partially purified) was obtained from quiescent BHK-21/C13 cells infected with strain F HSV-1 virus; made in house; host or cells: quiescent BHK-21/C13 cells infected with HSV-1 strain F (virus-encoded enzyme, partially purified)
T1 sequence (P08543 whole entry): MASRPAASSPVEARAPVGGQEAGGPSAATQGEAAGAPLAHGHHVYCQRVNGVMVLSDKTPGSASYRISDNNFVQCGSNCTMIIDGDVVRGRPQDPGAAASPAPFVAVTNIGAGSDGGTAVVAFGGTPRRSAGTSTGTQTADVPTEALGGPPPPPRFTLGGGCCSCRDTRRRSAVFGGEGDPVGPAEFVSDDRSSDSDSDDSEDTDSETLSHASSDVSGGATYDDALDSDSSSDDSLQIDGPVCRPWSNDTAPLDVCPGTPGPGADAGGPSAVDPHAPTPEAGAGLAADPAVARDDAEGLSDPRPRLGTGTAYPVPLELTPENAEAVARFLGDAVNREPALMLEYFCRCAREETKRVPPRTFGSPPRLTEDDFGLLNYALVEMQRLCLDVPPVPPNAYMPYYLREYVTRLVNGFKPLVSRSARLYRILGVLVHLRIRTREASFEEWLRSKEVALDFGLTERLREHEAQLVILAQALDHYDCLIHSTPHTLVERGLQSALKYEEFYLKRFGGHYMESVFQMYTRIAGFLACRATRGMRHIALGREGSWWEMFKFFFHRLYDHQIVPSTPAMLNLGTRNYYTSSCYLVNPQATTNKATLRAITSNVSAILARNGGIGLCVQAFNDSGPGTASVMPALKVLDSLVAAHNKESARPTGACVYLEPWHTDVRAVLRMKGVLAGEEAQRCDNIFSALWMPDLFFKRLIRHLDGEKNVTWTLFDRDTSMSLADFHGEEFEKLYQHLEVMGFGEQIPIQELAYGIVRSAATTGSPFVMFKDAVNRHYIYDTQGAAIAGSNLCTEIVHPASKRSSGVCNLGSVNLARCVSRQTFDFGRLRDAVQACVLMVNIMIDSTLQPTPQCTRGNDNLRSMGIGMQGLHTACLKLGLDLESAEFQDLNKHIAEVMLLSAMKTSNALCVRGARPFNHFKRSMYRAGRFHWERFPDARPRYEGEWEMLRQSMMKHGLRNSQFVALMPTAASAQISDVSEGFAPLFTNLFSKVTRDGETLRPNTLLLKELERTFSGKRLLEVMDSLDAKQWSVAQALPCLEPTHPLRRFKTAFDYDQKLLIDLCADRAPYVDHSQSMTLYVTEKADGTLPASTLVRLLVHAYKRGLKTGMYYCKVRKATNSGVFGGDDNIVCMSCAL
Text: Inhibition of Herpes Simplex Virus (HSV-1) Ribonucleotide Reductase
• a) Preparation of Enzyme HSV-1 ribonucleotide reductase (partially purified) was obtained from quiescent BHK-21/C13 cells infected with strain F HSV-1 virus at 10 plaque forming units/cell as described by E.A. Cohen et al., J. Gen. Virol., 66, 733 (1985). • b) Assay and Results for Exemplified Peptides By following the procedure described by P. Gaudreau et al., J. Biol, Chem., 262, 12413 (1987), the assay results listed in the following Table I were obtained. The assay result for each exemplified compound of formula 1 is expressed as the concentration of the compound producing 50% of the maximal inhibition (IC50) of enzyme activity. The number of units of the enzyme preparation used in each assay was constant, based on the specific activity of the enzyme preparation. The results are relative to the activity obtained in control experiments without the test compound and represent the mean of four assays that varied less than 10% with each other.

[3] = Human alphaherpesvirus 2, Table IV, cell culture assay of example 11, read-out: EC50
[4] = Table IV, cell culture assay of example 11, read-out: EC50

## CCCC(CC)NC(=O)NC(C(=O)CC(CC(=O)C(C)(C)C)C(=O)NC(C(=O)NCC(C)(C)C)C1(C(=O)O)CCCC1)C(C)(C)C [(R,S)-EtPrCH-NHC(O) / NHCH2CMe3, (R,S)-EtPrCH-NHC(O)-Tbg-CH2-(R)-CH(CH2C(O)CMe3)C(O)-Asp(cyPn)-NHCH2CMe3]
[1]; [3]
  EC50: 35 µM
[2]; Table IV, assay of example 10
  IC50: 0.23 µM

## CCCC(CCC)NC(=O)NC(C(=O)CC(CC(=O)C(C)C)C(=O)NC(C(=O)NCC(C)(C)C)C1(C(=O)O)CCCC1)C(C)(C)C [Pr2CHNHC(O)-Tbg-CH2-(R)-CH(CH2-C(O)CHMe2)C(O)-Asp(cyPn)-NHCH2-CMe3]
[1]; Human alphaherpesvirus 2, Table V, cell culture assay of example 11
  EC50: 39 µM
[2]; Table V, assay of example 10
  IC50: 0.36 µM

## CCC(CC)NC(=O)NC(C(=O)CC(CC(=O)N1CCCC1)C(=O)NC(C(=O)NC(CO)CC(C)(C)C)C1(C(=O)O)CCCC1)C(C)(C)C [Et2CHNHC(O)-Tbg-CH2-(S)-CH{CH2C(O)-(pyrrolidino)}C(O)-Asp(cyPn)-γMeLeucinol]
[1]; Human alphaherpesvirus 2, BHK21 (C13), 29 h, Table II, BHK-21/C13 cells, HSV-2 strain HG-52, 0.02 PFU/cell, 29 h incubation, read-out: EC50
  EC50: 200 µM
[2]; Table I, partially purified enzyme from BHK-21/C13 cells infected with strain F HSV-1, mean of four assays
  IC50: 0.17 µM

## CCCC(CCC)NC(=O)NC(C(=O)CC(CC(=O)C(C)(C)C)C(=O)NC(C(=O)NC(CCC)C(C)(C)C)C1(C(=O)O)CCCC1)C(C)(C)C [Pr2CHNHC(O) / NH-(R)-CH(Pr)CMe3, Pr2CHNHC(O)-Tbg-CH2-(R)-CH(CH2C(O)CMe3)C(O)-Asp(cyPn)-NH-(R)-CH(Pr)CMe3]
[1]; [3]
  EC50: 15 µM
[2]; Table IV, assay of example 10
  IC50: 0.43 µM

## CCCC(CCC)NC(=O)NC(C(=O)CC(CC(=O)C(C)(C)C)C(=O)NC(C(=O)NCC(CC)(CC)CC)C1(C(=O)O)CCCC1)C(C)(C)C [Pr2CHNHC(O) / NHCH2CEt3, Pr2CHNHC(O)-Tbg-CH2-(R)-CH(CH2C(O)CMe3)C(O)-Asp(cyPn)-NHCH2CEt3]
[1]; [3]
  EC50: 19 µM
[2]; Table IV, assay of example 10
  IC50: 0.52 µM

## C=CCC(CC=C)NC(=O)NC(C(=O)CC(CC(=O)C(C)(C)C)C(=O)NC(C(=O)NCC(C)(C)C)C1(C(=O)O)CCCC1)C(C)(C)C [(CH2=CHCH2)2-CHNHC(O) / NHCH2CMe3, (CH2=CHCH2)2-CHNHC(O)-Tbg-CH2-(R)-CH(CH2C(O)CMe3)C(O)-Asp(cyPn)-NHCH2CMe3]
[1]; [3]
  EC50: 100 µM
[2]; Table IV, assay of example 10
  IC50: 0.37 µM

## CCCC(CCC)NC(=O)NC(C(=O)CC(CC(=O)C(C)(C)C)C(=O)NC(C(=O)NC1CCCCC1(C)C)C1(C(=O)O)CCCC1)C(C)(C)C [Pr2CHNHC(O)-Tbg-CH2-(R)-CH(CH2C(O)CMe3)C(O)-Asp(cyPn)-NH-(2,2-dimethyl-cyclohexyl)]
[1]; [3]
  EC50: 24 µM
[2]; Table IV, assay of example 10
  IC50: 0.4 µM

## CCCC(CCC)NC(=O)NC(C(=O)CC(CC(=O)C(C)(C)C)C(=O)NC(C(=O)NCC(C)(CC)CC)C1(C(=O)O)CCCC1)C(C)(C)C [Pr2CHNHC(O) / NHCH2CEt2Me, Pr2CHNHC(O)-Tbg-CH2-(R)-CH(CH2C(O)CMe3)C(O)-Asp(cyPn)-NHCH2CEt2Me]
[1]; [3]
  EC50: 18 µM
[2]; Table IV, assay of example 10
  IC50: 0.34 µM

## CCCC(CCC)NC(=O)NC(C(=O)CC(CC(=O)C(C)(C)C)C(=O)NC(C(=O)NC(C)CC(C)(C)C)C1(C(=O)O)CCCC1)C(C)(C)C [Pr2CHNHC(O) / NH-(R)-CH(Me)CH2CMe3, Pr2CHNHC(O)-Tbg-CH2-(R)-CH(CH2C(O)CMe3)C(O)-Asp(cyPn)-NH-(R)-CH(Me)CH2CMe3]
[1]; [3]
  EC50: 14 µM
[2]; Table IV, assay of example 10
  IC50: 0.37 µM

## EtPr2CHNHC(O)-Tbg-CH2-(R)-CH(CH2C(O)CMe3)C(O)-Asp(cyPn)-NHCH2CHEt2 [EtPr2CHNHC(O) / NHCH2CHEt2]
[1]; [4]
  EC50: 42 µM
[2]; Table IV, assay of example 10
  IC50: 0.41 µM

## Me(CH2=CH-CH2)2CNHC(O)-Tbg-CH2-(R)-CH(CH2C(O)CMe3)C(O)-Asp(cyPn)-NHCH2CMe3 [Me(CH2=CHCH2)2-CNHC(O) / NHCH2CMe3]
[1]; [4]
  EC50: 30 µM
[2]; Table IV, assay of example 10
  IC50: 0.27 µM
